{"source": "patent US20160074400A1", "about": "“WNT MODULATORS FOR THE PROTECTION, MITIGATION AND TREATMENT OF RADIATION INJURY” (University of Southern California, priority 2012, published 2016)", "molecules": {"B1": {"name": "recombinant human Rspo1: purified recombinant human R-spondin1, SEQ ID NO:12, with StrepII tag at the c-terminal end (protein)", "chain": "MRLGLCVVALVLSWTHLTISSRGIKGKRQRRISAEGSQACAKGCELCSEVNGCLKCSPKLFILLERNDIRQVGVCLPSCPPGYFDARNPDMNKCIKCKIEHCEACFSHNFCTKCKEGLYLHKGRCYPACPEGSSAANGTMECSSPAQCEMSEWSPWGPCSKKQQLCGFRRGSEERTRRVLHAPVGDHAACSDTKETRRCTVRRVPCPEGQKRRKGGQGRRENANRNLARKESKEAGAGSRRRKGQQQQQQQGTVGPLTSAGPAESAWSHPQFEK", "modifications": "C-terminal StrepII tag; human Rspo1 protein variant with SrepII tag (ESAWSHPQFEK) at c-terminus"}}, "key": {"[1]": {"system": "asymmetric divisions in mitotic cells of the ventricular zone", "assay": "In vivo Par3 distribution assay of asymmetric versus symmetric divisions", "parameters": "species or system mice", "conditions": "for number of asymmetric divisions: topical or oral administration to pregnant mice, compared to vehicle control", "source_text": "For example, Bultje et al. (Bultje R Neuron 63, 189-202, 2009) describe an assay to measure asymmetric distributions in the ventricular zone (vz) to evaluate asymmetric divisions during neurogenesis. Essentially this involves treating the animal (either adult or in utero) for a set period of time with compounds (either p.o., s.c., i.v. or topically) with compounds and then sacrificing the animal and examining the Par3 distribution (e.g., via immunohistochemistry) in mitotic cells vs. DNA distribution (e.g., using DAPI staining) Par3 distributes equally among the two daughter cells during symmetric division and unequally (essentially all in one daughter cell) during asymmetric differentiation."}, "murine intestinal crypts": {"system": "murine intestinal crypts", "assay": "Small intestinal crypt organoid culture ex vivo, replacement of Rspo1", "assay_type": "cell-based", "conditions": "FIG. 5", "experimental": "Small intestinal crypt organoid culture was performed using murine intestinal crypts essentially as described by Ootani et al (Nature Medicine; online publication doi:10.1038/nm.1951, 27 Apr. 2009)), and see also Sato et al (Nature Letters doi:10.1038/nature07935, 2009), both incorporated by reference herein in their entireties."}, "[2]": {"system": "C57BL/6 mice exposed to whole body irradiation (RIGS)", "assay": "Survival (Kaplan-Meier) of mice after lethal whole body irradiation", "assay_type": "in vivo", "conditions": "10.4 Gy WBI; AdRspo1 5×10^9 particles/mice 1 hr and 48 hr post-IR, then ICG-001 150 mg/kg 72 hr post-IR; p<0.003", "experimental": "C57BL/6 mice were treated with recombinant adenovirus expressing human Rspo1, AdRspo1 (5×10^9 particles/mice, 1 hr and 48 hr post-IR), followed by ICG-001 (150 mg/kg of body weight, 72 hr post-IR) after whole body irradiation (WBI) of 9.4-10.4 Gy. […] Expression of mRNA levels of β-Catenin target genes in crypt cells was determined by qRT-PCR.\nTo examine whether the purified recombinant hRspo1 could mitigate RIGS when administered along with ICG001, we treated C57BL/6 mice after 10.4 Gy of WBI with the combination of recombinant hRspo1+ICG-001. Specifically, C57BL/6 mice (n=10), exposed to 10.4 Gy single fraction WBI, were treated with hRspo1 (20 mg/kg of body weight s.c.) at 24 hr and 48 hr post-WBI. A separate cohort received sequential treatment of hRspo1 (24 hr and 48 hr post WBI) followed by ICG-001 (150 mg/kg of body weight, 72 hr post-IR)."}, "[3]": {"system": "mouse intestinal organoids", "assay": "Intestinal organoid growth/maintenance assay", "assay_type": "cell-based", "experimental": "The recombinant human Rspo1 was also tested in an intestinal organoid growth/maintenance test. Self-renewal of the small intestinal and colonic epithelium is driven by the proliferation of stem cells and their progenitors; and their maintenance and growth in culture (ex-vivo) requires the activation of the Wnt pathway. Given that it is essential, only functional Rspo1 will be able to maintain the growth of intestinal organoids and lead to their maintenance and proliferation. FIGS. 12A and 12B show, according to particular exemplary aspects, testing of functionality of recombinant human Rspo1 in an intestinal organoid growth/maintenance assay.\nOrganoids were generated by culturing purified small intestinal crypts in matrigel in Advanced DMEM/F12 supplemented with 500 ng/ml R-spondin 1 [commercial (FIG. 12A) or recombinant (FIG. 12B)], 100 ng/ml EGF and 100 ng/ml Noggin."}, "[4]": {"system": "Wnt pathway in 293T cells", "assay": "TopFlash luciferase β-catenin activation test", "assay_type": "cell-based", "conditions": "24 hours in 1% FCS, alone and with Wnt3A, versus commercial Rspo1 from R&D biosystems", "experimental": "The recombinant cDNA used was SEQ ID NO:11, encoding for recombinant human Rspo1 (SEQ ID NO:12, with StrepII tag). Activity of the purified recombinant Rspo1 was assayed using a β-catenin activation test.\nBriefly, 293T cells were transfected with the reporter vector TopFlash, along with TK Renilla (transfection control) using lipofectamine 2000. After the transfection mixture was removed, cells were incubated in 0.1% FCS o/n, and then stimulated with the different inducers at the indicated concentrations in 1% FCS for 24 hours (FIG. 11)."}}}
{"molecule": "CC(=O)c1ccc(N=NC(C(N)=O)=C2NC(C)(C)Cc3ccccc32)cc1", "note": "[IQ-1, reference compound]", "values": [{"measurement": "number of symmetric divisions", "setting": "[1]; pregnant mice", "result": "increases the number of symmetric divisions"}, {"measurement": "number of asymmetric divisions", "setting": "[1]", "result": "decreases the number of asymmetric divisions"}]}
{"molecule": "O=c1cc(-c2ccccc2)oc2ccc3ccccc3c12", "note": "[beta napthoflavone]", "values": [{"measurement": "replacement of Rspo1 for maintenance of small intestinal crypt organoid cultures", "setting": "murine intestinal crypts", "result": "can be used to replace (for at least up to 4 days) Rspo1"}]}
{"molecule": "[Cl-].[Li+]", "note": "[LiCl]", "values": [{"measurement": "replacement of Rspo1 for maintenance of small intestinal crypt organoid cultures", "setting": "murine intestinal crypts", "result": "can be used to replace (for at least up to 4 days) Rspo1"}]}
{"molecule": "Cc1c[nH]c(-c2cnc(NCCNc3ccc(C#N)cn3)nc2-c2ccc(Cl)cc2Cl)n1", "note": "[CHIR]", "values": [{"measurement": "replacement of Rspo1 for maintenance of small intestinal crypt organoid cultures", "setting": "murine intestinal crypts", "result": "can be used to replace (for at least up to 4 days) Rspo1"}]}
{"molecule": "O=C1[C@H](Cc2ccc(O)cc2)N2C(=O)CCN(C(=O)NCc3ccccc3)[C@H]2CN1Cc1cccc2ccccc12", "note": "[ICG-001]", "values": [{"measurement": "number of asymmetric divisions", "setting": "[1]", "result": "does not affect the number of asymmetric divisions"}, {"measurement": "effect on the defect in asymmetric divisions caused by IQ-1", "setting": "[1]; treatment with excess ICG-001", "result": "corrects the defect in asymmetric divisions caused by IQ-1"}, {"measurement": "mice rescued from radiation lethality", "setting": "[2]", "result": 60, "unit": "%"}]}
{"molecule": "B1", "values": [{"measurement": "ability to maintain and induce sprouting (proliferation) of the organoids, versus commercial protein", "setting": "[3]; 500 ng/ml R-spondin 1", "result": "identical to the commercial protein"}, {"measurement": "maintenance of growth and proliferation of intestinal organoids", "setting": "[3]; 500 ng/ml R-spondin 1, 100 ng/ml EGF, 100 ng/ml Noggin, matrigel", "result": "capable of maintaining the growth and proliferation of mouse intestinal organoids in culture"}, {"measurement": "activation of β-catenin (TopFlash luciferase)", "setting": "[4]", "result": "capable of activating β-catenin by itself and synergizing with Wnt (e.g., Wnt3A) as well as, if not better, than the commercially obtained Rspo1"}]}
